Among the data in patent EP0970046B1, “N-HYDROXY-2-(ALKYL, ARYL, OR HETEROARYL SULFANYL, SULFINYL OR SULFONYL)-3-SUBSTITUTED ALKYL, ARYL OR HETEROARYLAMIDES AS MATRIX METALLOPROTEINASE INHIBITORS” (Wyeth Holdings Corporation, priority 1997, dated 1998) are inhibition values, retold here.

The inhibition is the change of the read-out against control, counted positive when it falls.

This experiment has as its target MMP 13 (Homo sapiens, UniProt P45452). Briefly: MMP 13 inhibition (HTS; method not described). The experiment is classed as biochemical. The following applies: read-out: MMP 13 % inhibition at 0.2 µM (HTS); 0.2 µM, HTS.
In the case of `O=C(CCC(C(=O)NO)[S+]([O-])c1ccccc1C(F)(F)F)NO` (stereo not drawn) [Example 138, 4-Hydroxycarbamoyl-4-(2-trifluoromethyl-benzenesulfinyl)-butyric acid hydroxyamide], the inhibition at 0.2 µM is 20%.
Next, `O=C(CCC(C(=O)NO)S(=O)(=O)c1ccccc1C(F)(F)F)NO` (stereo not drawn) [Example 139, 4-Hydroxycarbamoyl-4-(2-trifluoromethyl-benzenesulfonyl)-butyric acid hydroxyamide]: 8%; `CCCCCCCCC(Sc1cccc(OC)c1)C(=O)NO` (stereo not drawn) [Example 140, 2-(3-methoxy-benzenesulfanyl)decanoic acid hydroxamide]: 29%.
Regarding `CCCCCCCCC(C(=O)NO)[S+]([O-])c1cccc(OC)c1` (stereo not drawn) [Example 141, 2-(3-Methoxy-benzenesulfinyl)decanoic acid hydroxamide], the inhibition at 0.2 µM turned out to be 32%.
Next, `CCCCCCCCC(C(=O)NO)S(=O)(=O)c1cccc(OC)c1` (stereo not drawn) [Example 142, 2-(3-Methoxy-benzenesulfonyl)decanoic acid hydroxamide]: 69%.
Under `CCCCCCCCC(C(=O)NO)[S+]([O-])c1ccc([S+](C)[O-])cc1` (stereo not drawn) [Example 144, 2-(4-methanesulfinyl-benzenesulfinyl)decanoic acid hydroxamide] stands 38%; under `CCCCCCCCC(C(=O)NO)S(=O)(=O)c1ccc(S(C)(=O)=O)cc1` (stereo not drawn) [Example 145, 2-(4-methanesulfonyl-benzenesulfonyl)decanoic acid hydroxamide], 45%; under `CSc1ccc(SC(COCc2ccccc2)C(=O)NO)cc1` (stereo not drawn) [Example 146, 3-benzyloxy-N-hydroxy-2-(4-methanesulfanyl-benzenesulfanyl)-propionamide], 68%.
Under `C[S+]([O-])c1ccc([S+]([O-])C(COCc2ccccc2)C(=O)NO)cc1` (stereo not drawn) [Example 147, 3-Benzyloxy-N-hydroxy-2-(4-methanesulfinyl-benzenesulfinyl)-propionamide] stands 73%; under `O=C(NO)C(Cc1cnc[nH]1)Sc1ccccc1Br` (stereo not drawn) [Example 152, 2-(2-bromo-benzenesulfanyl)-N-hydroxy-3-(3H-imidazol-4-yl)-propionamide], 9%; under `N=C(N)NCCCC(Sc1cccc(F)c1)C(=O)NO` (stereo not drawn) [Example 155, 2-(3-fluorophenylsulfanyl)-5-guanidino-pentanoic acid hydroxyamide], 31%.
Take `N=C(N)NCCCC(Sc1ccccc1Br)C(=O)NO` (stereo not drawn) [Example 157, 2-(2-Bromosulfanyl)-5-guanidino-pentanoic acid hydroxyamide]: the inhibition at 0.2 µM worked out at 19%.
Next, `N=C(N)NCCCC(C(=O)NO)[S+]([O-])c1ccccc1Br` (stereo not drawn) [Example 158, 2-(2-Bromosulfinyl)-5-guanidino-pentanoic acid hydroxyamide]: 33%.
Under `N=C(N)NCCCC(C(=O)NO)S(=O)(=O)c1ccccc1Br` (stereo not drawn) [Example 159, 2-(2-Bromosulfonyl)-5-guanidino-pentanoic acid hydroxyamide] stands 49%.
Next, `CCCCCCC(Sc1cc(Cl)ccc1Cl)C(=O)NO` (stereo not drawn) [Example 160, 2-(2,5-dichlorobenzenesulfanyl)-octanoic acid hydroxyamide]: 14%.
`CCCCCCC(Sc1cccc(OC)c1)C(=O)NO` (stereo not drawn) [Example 162, 2-(3-Methoxybenzenesulfanyl)-ocranoic acid hydroxyamide]: the inhibition at 0.2 µM is 13%.
In the case of `CCCCCCC(C(=O)NO)S(=O)(=O)c1cccc(OC)c1` (stereo not drawn) [Example 164, 2-(3-Methoxybenzenesulfonyl)-octanoic acid hydroxyamide], the inhibition at 0.2 µM was determined as 74%.
Next, `CCCCCCC(Sc1ccc(OC)c(OC)c1)C(=O)NO` (stereo not drawn) [Example 165, 2-(3,4-Dimethoxybenzenesulfanyl)-octanoic acid hydroxyamide]: 71%.
